Data: PMC7274485, “A symbiotic bacterium of shipworms produces a compound with broad spectrum anti-apicomplexan activity” (PLoS Pathogens, 2020)
Read-outs that look alike come from different tables or passages of the source.

How the values were obtained:
[1] = test system: Cryptosporidium parvum; assay: Nanoluciferase-expressing C. parvum inhibitor response assay in HCT-8 cells; assay type: cell-based; settings: HCT-8 cells infected 24 hours, read 48 hours post-treatment, read-out: EC50 against C. parvum
Method: We had postulated that secondary metabolites generated by symbiotic bacteria of invertebrates might include compounds that target gregarines, an ancient group of apicomplexans found in most, and perhaps all, invertebrates. The only gregarines known to infect mammals are Cryptosporidium species, gastrointestinal parasites that cause diarrheal disease in humans and other mammals. HCT8 cells were infected with luciferase-expressing Cryptosporidium parvum parasites for 24 hours, then two-fold dilutions of trtE added to the infected cells. 48 hours after the addition of trtE, parasite growth was quantified by luciferase expression. […] To examine the morphology of trtE treated C. parvum parasites, HCT8 cells were infected with C. parvum oocysts for 8 hours. Extracellular parasites were washed off and medium containing 60 nM trtE added to the infected cells. After 12 hours of treatment, infected cells were fixed and processed for IFAs.
C. parvum oocysts expressing nanoluciferase (nLuc) were obtained from the Cryptosporidium Production Laboratory at the University of Arizona and inhibitor response assays were conducted as previously described.

[2] = test system: Theileria equi; assay: Theileria equi 72 hr in vitro parasite growth inhibition assay; assay type: cell-based
Method: The effect of trtE on proliferation of T. equi was evaluated in a 72 hr in vitro parasite growth inhibition assay performed as previously described using the USDA Florida strain of T. equi.
A. Bovine turbinate cells infected with luciferase expressing Sarcocystis neurona merozoites were treated with trtE for 24 hours and parasite growth evaluated by luciferase expression. […] B. Theileria equi-infected erythrocytes were incubated with trtE or DMSO vehicle control and proliferation was measured after 72 hours by SYBR green incorporation. Percent proliferation was calculated relative to DMSO treated controls. […] (DOCX) Click here for additional data file.

[3] = test system: Human Foreskin fibroblasts; assay: Cytotoxicity for host cells, cellular ATP (CellTiter-Glo): HFF
Method: Toxicity was evaluated by measuring cellular ATP concentrations.
HCT8, HFF and BT cells were seeded in 96-well plates to achieve 20–30% confluence after 24 hours of growth.

CC1CCC=CC=CCCC(O)CC(=O)CC2CCC(C)C3(O2)O[B-]24OC(C(=O)O1)C1(OC(CCC1C)CC(=O)CC(O)CCC=CC=CCCC(C)OC(=O)C3O2)O4 (centres unmarked) [trtE, tartrolon E]
EC50 [1]: 3.85 nM | EC50 ([2]; Erythrocyte, infected erythrocytes, 72 hours, read-out: EC50 against T. equi): 0.391 nM | EC50 ([2]; Table 1, rounded, read-out: EC50 against T. equi (Table 1)): 0.4 nM | TC50 (median toxic concentration) for HFF ([3]; 20–30% confluency, 24 hours, cellular ATP): 7900 nM | Selectivity Index, T. gondii vs Human Foreskin fibroblasts ([3]; TC50/EC50): 2633
